Measured values from ChEMBL document CHEMBL1275601, “Striking species difference in the contribution of concentrative nucleoside transporter 2 to nucleoside uptake between mouse and rat hepatocytes” (Antimicrob Agents Chemother, 2010).
The source made the active and inactive calls. The calls are words filed in the database; no cut-off is given here.

Assays:
Assay type in all cases: cell-based
Hepatocyte [1] = assay: Transport through CNT3 in rat hepatocytes by oil filtration assay in presence of sodium ions in Kreb-henseleit buffer containing 100 uM NBMPR and thymidine
[2] = target: T1, Equilibrative nucleoside transporter 1 (Rattus norvegicus) (UniProt O54698); assay: Transport through ENT1 in rat hepatocytes by oil filtration assay in presence 100 uM of transporter inhibitor NBMRP; conditions: Hepatocyte
T1 sequence (whole entry): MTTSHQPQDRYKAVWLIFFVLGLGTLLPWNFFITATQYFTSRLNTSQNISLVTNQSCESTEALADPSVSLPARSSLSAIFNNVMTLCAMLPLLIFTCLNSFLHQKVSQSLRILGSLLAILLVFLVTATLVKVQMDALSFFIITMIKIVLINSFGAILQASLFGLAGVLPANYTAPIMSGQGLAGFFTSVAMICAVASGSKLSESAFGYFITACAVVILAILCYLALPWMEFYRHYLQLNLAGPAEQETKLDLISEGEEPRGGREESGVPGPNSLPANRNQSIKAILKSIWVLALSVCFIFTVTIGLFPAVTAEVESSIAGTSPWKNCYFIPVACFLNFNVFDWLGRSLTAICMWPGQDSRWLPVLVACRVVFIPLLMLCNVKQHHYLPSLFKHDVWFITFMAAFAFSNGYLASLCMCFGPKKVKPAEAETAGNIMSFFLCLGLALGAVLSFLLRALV

Hepatocyte [3] = assay: Transport through CNT3 in rat hepatocytes by oil filtration assay in presence of sodium ions in Kreb-henseleit buffer containing 100 uM NBMPR and 1 mM uridine
[4] = target: T2, Equilibrative nucleoside transporter 2 (Mus musculus) (UniProt Q61672); assay: Transport through ENT2 in mouse hepatocytes by oil filtration assay in presence of sodium ions in Kreb-henseleit buffer; conditions: Hepatocyte
T2 sequence (whole entry): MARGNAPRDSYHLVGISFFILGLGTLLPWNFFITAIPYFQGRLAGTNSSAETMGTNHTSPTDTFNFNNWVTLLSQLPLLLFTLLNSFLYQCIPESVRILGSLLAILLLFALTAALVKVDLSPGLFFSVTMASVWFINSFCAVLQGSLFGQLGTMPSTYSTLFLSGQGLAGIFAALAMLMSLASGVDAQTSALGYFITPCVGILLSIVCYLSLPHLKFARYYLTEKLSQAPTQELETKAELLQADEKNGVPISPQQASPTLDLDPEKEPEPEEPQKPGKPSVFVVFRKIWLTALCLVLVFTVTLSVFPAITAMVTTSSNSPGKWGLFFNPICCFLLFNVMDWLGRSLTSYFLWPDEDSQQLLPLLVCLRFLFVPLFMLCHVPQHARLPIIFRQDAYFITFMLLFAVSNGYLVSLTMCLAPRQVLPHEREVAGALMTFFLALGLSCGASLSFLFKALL

[5] = target: T3, Sodium/nucleoside cotransporter 1 (Rattus norvegicus) (UniProt Q62674); assay: Transport through CNT1 in rat hepatocytes by oil filtration assay in presence of sodium ions in Kreb-henseleit buffer containing 100 uM NBMPR and thymidine; conditions: Hepatocyte
T3 sequence (whole entry): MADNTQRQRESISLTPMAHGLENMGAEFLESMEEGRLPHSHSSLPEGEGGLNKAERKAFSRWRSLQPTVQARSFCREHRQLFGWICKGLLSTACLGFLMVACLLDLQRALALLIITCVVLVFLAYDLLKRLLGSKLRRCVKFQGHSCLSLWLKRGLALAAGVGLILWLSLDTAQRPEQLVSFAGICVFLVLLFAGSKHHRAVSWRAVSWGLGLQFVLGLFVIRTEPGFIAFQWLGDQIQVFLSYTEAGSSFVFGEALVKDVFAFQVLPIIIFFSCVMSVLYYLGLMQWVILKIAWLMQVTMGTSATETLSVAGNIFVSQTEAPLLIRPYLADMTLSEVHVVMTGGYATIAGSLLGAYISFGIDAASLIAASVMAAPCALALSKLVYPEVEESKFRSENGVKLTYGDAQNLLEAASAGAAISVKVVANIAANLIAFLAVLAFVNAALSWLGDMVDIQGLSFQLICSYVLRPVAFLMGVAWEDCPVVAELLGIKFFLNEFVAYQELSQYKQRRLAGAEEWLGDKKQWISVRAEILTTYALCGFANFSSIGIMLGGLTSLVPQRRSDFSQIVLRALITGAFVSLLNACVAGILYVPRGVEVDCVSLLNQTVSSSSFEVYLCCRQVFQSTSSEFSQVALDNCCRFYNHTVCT

[6] = target: T4, Equilibrative nucleoside transporter 1 (Mus musculus) (UniProt Q9JIM1); assay: Transport through ENT1 in mouse hepatocytes by oil filtration assay in presence 100 uM of transporter inhibitor NBMRP; conditions: Hepatocyte
T4 sequence (whole entry): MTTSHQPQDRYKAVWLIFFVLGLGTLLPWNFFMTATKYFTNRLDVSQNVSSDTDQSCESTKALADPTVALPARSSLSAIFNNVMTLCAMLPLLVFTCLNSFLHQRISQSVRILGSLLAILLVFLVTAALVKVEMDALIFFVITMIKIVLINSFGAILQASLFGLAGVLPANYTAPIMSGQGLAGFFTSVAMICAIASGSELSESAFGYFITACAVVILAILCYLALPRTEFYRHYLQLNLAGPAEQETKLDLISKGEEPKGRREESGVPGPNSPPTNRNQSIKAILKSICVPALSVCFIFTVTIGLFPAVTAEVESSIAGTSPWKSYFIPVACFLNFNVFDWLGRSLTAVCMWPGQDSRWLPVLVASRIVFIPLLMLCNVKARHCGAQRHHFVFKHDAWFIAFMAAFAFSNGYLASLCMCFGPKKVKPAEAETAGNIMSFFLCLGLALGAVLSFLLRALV

Hepatocyte [7] = assay: Transport through CNT1 in mouse hepatocytes by oil filtration assay in presence of sodium ions in Kreb-henseleit buffer
[8] = target: T5, Equilibrative nucleoside transporter 2 (Rattus norvegicus) (UniProt O54699); assay: Transport through ENT2 in rat hepatocytes by oil filtration assay; conditions: Hepatocyte
T5 sequence (whole entry): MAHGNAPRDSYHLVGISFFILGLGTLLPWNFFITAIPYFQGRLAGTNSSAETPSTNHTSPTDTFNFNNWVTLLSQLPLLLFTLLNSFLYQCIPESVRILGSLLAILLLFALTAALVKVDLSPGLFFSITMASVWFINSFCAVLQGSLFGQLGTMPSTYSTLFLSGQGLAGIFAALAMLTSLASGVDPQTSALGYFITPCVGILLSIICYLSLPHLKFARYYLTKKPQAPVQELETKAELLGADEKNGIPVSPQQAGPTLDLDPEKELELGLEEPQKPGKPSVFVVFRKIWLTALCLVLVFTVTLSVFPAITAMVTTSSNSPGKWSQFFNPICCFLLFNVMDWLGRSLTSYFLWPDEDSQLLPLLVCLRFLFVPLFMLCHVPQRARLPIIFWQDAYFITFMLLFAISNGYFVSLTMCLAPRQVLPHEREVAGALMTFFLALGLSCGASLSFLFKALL

Hepatocyte [9] = assay: Transport through CNT3 in rat hepatocytes by oil filtration assay in presence of sodium ions in Kreb-henseleit buffer

Row | SMILES | Activity (Hepatocyte [1]) | Activity [2] | Activity (Hepatocyte [3]) | Activity [4] | Activity [5] | Activity [6] | Activity (Hepatocyte [7]) | Activity [8] | Activity (Hepatocyte [9])
1 | NC(=O)c1ncn([C@@H]2O[C@H](CO)[C@@H](O)[C@H]2O)n1 | inactive | inactive | inactive | inactive | inactive | inactive | inactive | Active | Active
2 | Nc1ncnc2c1ncn2[C@@H]1O[C@H](CO)[C@@H](O)[C@H]1O | inactive | inactive | inactive | inactive | inactive | inactive | inactive | inactive | Active
